Results as given in article PMC8625065 (Molecules, 2021).
Structures can show the parent of a compound that is named as a salt.

Legend:
[1] = tested on: A549 (lung adenocarcinoma); assay: MTT proliferation assay, 72 h; type: cell-based; settings: Homo sapiens, A549 cells
Protocol: (§1) The cell lines HeLa (cervical carcinoma), SW620 (colorectal adenocarcinoma, metastatic), A549 (lung adenocarcinoma), HepG2 (hepatocellular carcinoma) and HFF (human foreskin fibroblasts) were cultured as monolayers and maintained in Dulbecco’s modified Eagle medium (DMEM), supplemented with 10% fetal bovine serum (FBS), 2mM L-glutamine, 100 U/mL penicillin and 100 μg/mL streptomycin in a humidified atmosphere with 5% CO2 at 37 °C.
(§2) Cells were seeded onto 96-well microtiter plates at a seeding density of 3000 cells/well for carcinoma cell lines, and 5000 cells/well for normal human fibroblasts. The next day, cells were treated with test agents at five different concentrations (0.01–100 µM) and further incubated for 72 h. […] Following 72 h incubation, the MTT assay was performed and measured absorbances were transformed into percentage of cell growth as described previously. Results were obtained from three independent experiments.

[2] = tested on: SW620 (colorectal adenocarcinoma, metastatic); assay: MTT proliferation assay, 72 h; type: cell-based, human; settings: Homo sapiens, SW-620; SW620 cells, MTT, 72 h
Protocol: as §1, §2

[3] = tested on: HepG2 (hepatocellular carcinoma); assay: MTT proliferation assay, 72 h; type: cell-based, human; settings: Homo sapiens; HepG2 cells, MTT, 72 h
Protocol: as §1, §2

[4] = tested on: HeLa (cervical carcinoma); assay: MTT proliferation assay, 72 h; type: cell-based, human; settings: Homo sapiens; HeLa cells, MTT, 72 h
Protocol: as §1, §2

[5] = tested on: HFF (human foreskin fibroblasts); assay: MTT proliferation assay, 72 h, non-tumor cells; type: cell-based; set-up: selectivity index (SI): reference not given here; settings: for IC50: Homo sapiens, Fibroblast, non-tumor HFF fibroblasts, MTT, 72 h; for selectivity index (SI): normal HFF fibroblasts versus tumor cells
Protocol: as §1, §2

[6] = tested on: poly A-poly U (RNA, polymer) A/U; assay: fluorescence titration, Scatchard; settings: Na+ (sodium cacodylate, I = 0.05 M); sodium cacodylate buffer pH 7.0, 25 °C; polynucleotide concentration as phosphates; per base
[7] = tested on: poly (dAdT)2 (DNA, polymer) AT; assay: UV thermal melting, 260 nm; settings: Na+ (sodium cacodylate, I = 0.05 M); sodium cacodylate buffer pH 7
[8] = tested on: poly (dAdT)2 (DNA, polymer) AT; assay: fluorescence titration, Scatchard; settings: Na+ (sodium cacodylate, I = 0.05 M); sodium cacodylate buffer pH 7.0, 25 °C; polynucleotide concentration as phosphates; per base
p(dAdT)2 (AT-DNA) = assay: Fluorimetric titration, Scatchard processing; type: binding; settings: p(dAdT)2, pH 7.0, sodium cacodylate buffer, I = 0.05 mol dm^-3
Protocol: Compound solutions were used for measurements in aqueous buffer (pH = 7, sodium cacodylate buffer, I = 0.05 mol dm^−3). Polynucleotides were purchased as noted: poly A-poly U, poly (dAdT)2 and calf thymus (ct)DNA (Sigma-Aldrich). Polynucleotides were dissolved in Na-cacodylate buffer, I = 0.05 mol dm^−3, pH = 7. The calf thymus ctDNA was additionally sonicated and filtered through a […]. Polynucleotide concentration was determined spectroscopically as the concentration of phosphates.
Fluorescence spectra were recorded on a Varian Cary Eclipse spectrophotometer at 25 °C using appropriate 1cm path quartz cuvettes. Fluorometric experiments were performed at pH = 7 (I = 0.05 mol dm^−3, sodium cacodylate buffer) by adding portions of polynucleotide solution into the solution of the studied compound. In fluorometric experiments, an excitation wavelength of λexc ≥ 300 nm was used to avoid the inner filter effect caused due to increasing absorbance of the polynucleotide. Emissions were determined in the range λem = 300–600 nm. Values for Ks obtained by processing titration data using the Scatchard equation [40], in most titrations have satisfactory correlation coefficients (≥0.98).

ctDNA = assay: Thermal melting experiment; type: binding, calf; settings: r = [compound]/[polynucleotide] = 0.3, pH 7.0, error ±0.5 °C
Protocol: (§3) Compound solutions were used for measurements in aqueous buffer (pH = 7, sodium cacodylate buffer, I = 0.05 mol dm^−3). Polynucleotides were purchased as noted: poly A-poly U, poly (dAdT)2 and calf thymus (ct)DNA (Sigma-Aldrich). Polynucleotides were dissolved in Na-cacodylate buffer, I = 0.05 mol dm^−3, pH = 7. The calf thymus ctDNA was additionally sonicated and filtered through a […]. Polynucleotide concentration was determined spectroscopically as the concentration of phosphates. UV–Vis spectra were recorded on a Varian Cary 100 Bio spectrophotometer using 1cm path quartz cuvettes. Calibration experiments were performed at 25 °C and pH = 7 (I = 0.05 mol dm^−3, sodium cacodylate buffer). Thermal melting curves for DNA and their complexes with studied compounds were determined as previously described by following the absorption change at 260 nm as a function of temperature. The absorbance of the ligands was subtracted from every curve and the absorbance scale was normalized. Tm values are the midpoints of the transition curves determined from the maximum of the first derivative and checked graphically by the tangent method. The ΔTm values were calculated by subtracting the Tm of the free nucleic acid from the Tm of the complex. Every ΔTm value reported here was the average of at least two measurements. The error in ΔTm is ±0.5 °C.

poly A-poly U = assay: Thermal melting experiment; type: binding; settings: r = 0.3, pH 7.0, error ±0.5 °C
Protocol: as §3

poly(dAdT)2 = assay: Thermal melting experiment; type: binding; settings: poly(dAdT)2, r = 0.3, pH 7.0; error ±0.5 °C
Protocol: as §3

| Compound | IC50 [1] [µM] | IC50 [2] [µM] | IC50 [3] [µM] | IC50 [4] [µM] | melting point [°C] | also measured |
| --- | --- | --- | --- | --- | --- | --- |
| N#Cc1cccc2c1ccn2Cc1cn(-c2ccc(/C(N)=N/O)cc2)nn1 [Compound 14, 1-((1-(4-((Z)-N′-Hydroxycarbamimidoyl)phenyl)-1H-1,2,3-triazol-4-yl)methyl)-4-cyanoindole] | > 100 | > 100 | > 100 | 65.8 | – | – |
| Cl.Cl.c1cc(C2=NCCN2)ccc1NCc1cn(-c2ccc(C3=NCCN3)cc2)nn1 [Compound 4, 1-(4-(4,5-Dihydro-1H-imidazol-2-yl)-phenyl)-4-((4-(4,5-dihydro-1H-imidazol-2-yl)phenyl)aminomethyl)-1H-1,2,3-triazole dihydrochloride] | 46.7 | 61.9 | 48.9 | 41.2 | > 250 | selectivity index (SI) [5]: 2 |
| c1cc(-n2cc(Cn3ccc4cc(C5=NCCN5)ccc43)nn2)ccc1C1=NCCN1 [Compound 7, 1-((1-(4-(Dihydro-1H-imidazol-2-yl)phenyl)-1H-1,2,3-triazol-4-yl)methyl)-5-(dihydro-1H-imidazol-2-yl)-1H-indole dihydrochloride] | > 100 | 49.8 | 69.1 | > 100 | – | – |
| c1cc(C2=NCCN2)c2ccn(Cc3cn(-c4ccc(C5=NCCN5)cc4)nn3)c2c1 | – | – | – | – | – | logKs [6]: 4.2; binding [7]: yes; logKs [8]: 6.6 |
| O=c1[nH]cc(F)c(=O)[nH]1 [Compound 5-FU, 5-Fluorouracil, reference compound] | 2.8 | 0.08 | – | 8.81 | – | – |
| c1cc(-n2cc(Cn3ccc4cc(C5=NCCN5)ccc43)nn2)ccc1C1=NCCN1 (as salt: hydrochloride) [Compound 7, 1-((1-(4-(Dihydro-1H-imidazol-2-yl)phenyl)-1H-1,2,3-triazol-4-yl)methyl)-5-(dihydro-1H-imidazol-2-yl)-1H-indole dihydrochloride] | – | – | – | – | 228 to 231 | – |
| N/C(=N\O)c1ccc(OCc2cn(-c3ccc(/C(N)=N/O)cc3)nn2)cc1 [Compound 13, (Z)-N′-Hydroxy-4-(4-((4-((Z)-N′-hydroxycarbamimidoyl)phenoxy)methyl)-1H-1,2,3-triazol-1-yl)benzimidamide] | > 100 | > 100 | > 100 | > 100 | 218 to 221 | – |
| Cl.c1cnc2c(NCc3cn(-c4ccc(C5=NCCN5)cc4)nn3)cccc2c1 [Compound 8, 8-(((1-(4-(4,5-Dihydro-1H-imidazol-2-yl)phenyl)-1H-1,2,3-triazol-4-yl)methyl)amino)-quinoline hydrochloride] | 29.1 | 35.6 | 4.84 | 23.8 | 192 to 196 | IC50 [5]: 11.7 µM; selectivity index (SI) [5]: 2; logKs (p(dAdT)2 (AT-DNA)): 5.5; ΔTm (ctDNA): 0 °C; logKs [8]: 5.5; ΔTm (poly A-poly U): 0 °C; ΔTm (poly(dAdT)2): 1 °C |
| N#Cc1ccc(NCc2cn(-c3ccc(/C(N)=N/O)cc3)nn2)cc1 [Compound 12, 4-(((1-(4-((Z)-N′-Hydroxycarbamimidoyl)phenyl)-1H-1,2,3-triazol-4-yl)methyl)amino)benzonitrile] | > 100 | 65.1 | > 100 | > 100 | 222 to 225 | – |
| c1cc(C2=NCCN2)c2ccn(Cc3cn(-c4ccc(C5=NCCN5)cc4)nn3)c2c1 (as salt: hydrochloride) [Compound 6, 1-((1-(4-(Dihydro-1H-imidazol-2-yl)phenyl)-1H-1,2,3-triazol-4-yl)methyl)-4-(dihydro-1H-imidazol-2-yl)-1H-indole dihydrochloride] | – | – | – | – | > 250 | – |

Now from value to molecule, other results behind:

| IC50 [1] [µM] | IC50 [2] [µM] | IC50 [3] [µM] | IC50 [4] [µM] | melting point [°C] | Compound | also measured |
| --- | --- | --- | --- | --- | --- | --- |
| 6.52 | – | > 100 | 25.6 | – | N/C(=N\O)c1ccc(-n2cc(CNc3cccc4cccnc34)nn2)cc1 [Compound 18, 8-(((1-(4-((Z)-N′-Hydroxycarbamimidoyl)phenyl)-1H-1,2,3-triazol-4-yl)methyl)amino)quinoline] | IC50 [5]: 9.81 µM |
| > 100 | > 100 | > 100 | > 100 | 229 to 232 | N/C(=N\O)c1ccc(-n2cc(Cn3ccc4c(/C(N)=N/O)cccc43)nn2)cc1 [Compound 15, (Z)-N′-hydroxy-1-((1-(4-((Z)-N′-hydroxycarbamimidoyl)phenyl)-1H-1,2,3-triazol-4-yl)methyl)-1H-indole-4-carboximidamide] | – |
| > 100 | > 100 | > 100 | > 100 | – | N#Cc1ccc2c(ccn2Cc2cn(-c3ccc(/C(N)=N/O)cc3)nn2)c1 [Compound 16, 1-((1-(4-((Z)-N′-Hydroxycarbamimidoyl)phenyl)-1H-1,2,3-triazol-4-yl)methyl)-5-cyanoindole] | – |
| > 100 | > 100 | > 100 | 60.7 | 232 to 234 | N/C(=N\O)c1ccc(-n2cc(Cn3ccc4cc(/C(N)=N/O)ccc43)nn2)cc1 [Compound 17, (Z)-N′-hydroxy-1-((1-(4-((Z)-N′-hydroxycarbamimidoyl)phenyl)-1H-1,2,3-triazol-4-yl)methyl)-indole-5-carboximidamide] | – |
| 76.7 | 72.7 | > 100 | 64.5 | 230 to 232 | N/C(=N\O)c1ccc(-n2cc(COc3cccc4cccnc34)nn2)cc1 [Compound 19, 8-((1-(4-((Z)-N′-Hydroxycarbamimidoyl)phenyl)-1H-1,2,3-triazol-4-yl)methoxy)quinoline] | – |
| > 100 | > 100 | 91.4 | 87.4 | 232 to 235 | N/C(=N\O)c1ccc(-n2cc(COc3ccc4ccc(=O)oc4c3)nn2)cc1 [Compound 22, 7-((1-(4-((Z)-N′-Hydroxycarbamimidoyl)phenyl)-1H-1,2,3-triazol-4-yl)methoxy)coumarin] | – |
| > 100 | > 100 | > 100 | 99.7 | 235 to 237 | N/C(=N\O)c1ccc(-n2cc(COc3cc(=O)oc4ccccc34)nn2)cc1 [Compound 21, 4-((1-(4-((Z)-N′-Hydroxycarbamimidoyl)phenyl)-1H-1,2,3-triazol-4-yl)methoxy)coumarin] | – |
